In publication PMC3260785 (The Journal of Physical Chemistry. B, 2011):

Target: T1, Formate dehydrogenase (FDH, Candida boidinii) ([Candida] boidinii, UniProt O13437)
T1 sequence (O13437 1-364): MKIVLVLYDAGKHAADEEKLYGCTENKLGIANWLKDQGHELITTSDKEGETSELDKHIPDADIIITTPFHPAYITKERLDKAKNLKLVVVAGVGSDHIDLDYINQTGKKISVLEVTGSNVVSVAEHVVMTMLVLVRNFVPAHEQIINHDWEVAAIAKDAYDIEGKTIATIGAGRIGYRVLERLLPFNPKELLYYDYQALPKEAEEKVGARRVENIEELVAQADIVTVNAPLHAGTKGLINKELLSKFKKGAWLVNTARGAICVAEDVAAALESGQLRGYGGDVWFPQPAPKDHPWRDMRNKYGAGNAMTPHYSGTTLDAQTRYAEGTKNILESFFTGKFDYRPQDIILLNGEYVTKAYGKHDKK
Assay: isothermal titration calorimetry
Type: binding

Work on `[N-]=[N+]=NCc1ccc[n+]([C@@H]2O[C@H](COP(=O)(O)OP(=O)(O)OC[C@H]3O[C@@H](n4cnc5c(N)ncnc54)[C@H](O)[C@@H]3O)[C@@H](O)[C@H]2O)c1` [PAAD^+] yielded a Kd of 7 µM.
